Measured values reported in patent US20120270844A1, “METHODS FOR TREATING ALZHEIMER'S DISEASE” (aFRAXis, Inc., priority 2009, published 2012).

biological target: PAK1 (Homo sapiens, UniProt Q13153); experiment: Z'Lyte fluorescence-based (FRET) PAK kinase assay, PAK1; assay type: biochemical; conditions: Table 1 of Example 29 (own compound numbering); 50 μM ATP
Method: (§1) A fluorescence-based assay format is used to determine IC50 values of test compounds in vitro. Purified PAK kinase is incubated with ATP, and a test compound at various concentrations and a substrate peptide containing two fluorophores. In a second step, the reaction mix is incubated with a site-specific protease that cleaves non-phosphorylated bat not phosphorylated substrate peptide, disrupting the FRET signal generated by the two fluorophores in the cleaved peptide (Z′Lyte™ Kinase assay platform; Life Technologies).
(§2) Reagents: 50 mM HEPES, pH 7.5; 0.01% BRIJ-35; 10 nM MgCl1; 1 mM EGTA, 2 uM substrate peptide Ser/Thr20 (proprietary Life Technologies Sequence), PAK enzyme [2.42-30.8 ng for PAK1, 0.29-6 ng for PAK2, 1.5-20 ng for PAK3 and 0.1-0.86 ng for PAK4; actual enzyme amounts depend on lot activity of the enzyme preparation]
(§3) Test compounds are dissolved in DMSO at various concentrations; the final DMSO concentration in the assay reaction is 1%.
(§4) ATP concentration at Kin apparent is used in the assay [50 ┌M ATP for PAK1 assay, 75 ┌M ATP for PAK2 assay, 100 μM ATP for PAK3 assay, 5 μM ATP for PAK4 assay] in a total assay volume of 10 μl. Assay reactions are incubated at room temperature for 1 hr. Following the kinase reaction, 5 μl of 1:256 dilution of development solution A (Life Technologies) is added and the reaction mix is incubated for an additional 1 hr at room temperature.
(§5) Plates are analyzed in a standard fluorescence plate reader (Tecan or equivalent) using an excitation wavelength of 400 nn and emission wavelengths of 445 nm and 520 nm.
(§6) Inhibition of kinase reaction is determined by emission ratio=emission@445 nm/emission@520 nm
as §1, with “non-phosphorylated but” for “non-phosphorylated bat”, “peptide (Z'Lyte™” for “peptide (Z′Lyte™”, “assay platform” for “assay platform;”
as §2, with “mM MgCl2;” for “nM MgCl1;”
as §4, with “at Km” for “at Kin”, “[50 μMATP” for “[50 ┌M ATP”, “75 µM” for “75 ┌M”, “[…]” for “10 μl.”, “kinase reaction.” for “kinase reaction,”, “[…]” for “5 μl”
(§7) Plates are analyzed in a standard fluorescence plate reader (Teem or equivalent) using an excitation wavelength of 400 nm and emission wavelengths of 445 nm and 520 nm.

PAK1, sequence (Q13153 whole entry): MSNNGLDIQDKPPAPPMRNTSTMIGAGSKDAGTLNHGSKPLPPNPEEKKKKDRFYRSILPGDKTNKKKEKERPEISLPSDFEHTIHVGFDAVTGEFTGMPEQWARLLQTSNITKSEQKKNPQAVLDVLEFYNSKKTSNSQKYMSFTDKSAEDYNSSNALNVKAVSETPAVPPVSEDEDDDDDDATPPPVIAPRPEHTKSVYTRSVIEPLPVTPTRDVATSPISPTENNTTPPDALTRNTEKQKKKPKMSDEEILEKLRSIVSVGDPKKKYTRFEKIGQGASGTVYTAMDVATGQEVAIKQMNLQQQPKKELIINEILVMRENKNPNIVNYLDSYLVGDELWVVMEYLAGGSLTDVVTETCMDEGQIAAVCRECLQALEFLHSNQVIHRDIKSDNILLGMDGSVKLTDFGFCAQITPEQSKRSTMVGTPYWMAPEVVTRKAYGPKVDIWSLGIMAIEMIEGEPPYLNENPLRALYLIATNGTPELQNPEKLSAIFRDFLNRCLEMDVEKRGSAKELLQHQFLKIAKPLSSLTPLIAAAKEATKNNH

Row | SMILES | IC50
1 | CC(c1ccccc1)n1c(=O)ccc2cnc(Nc3ccc(N4CCN(C)CC4)cc3)nc21 (stereo not drawn) [Compound 102] | 1000 to 10000 nM
2 | CN1CCN(c2ccc(Nc3ncc4ccc(=O)n(CCc5ccccc5)c4n3)cc2)CC1 [Compound 103] | < 1000 nM
3 | CN1CCN(c2ccc(Nc3ncc4ccc(=O)n(CC(=O)c5ccccc5)c4n3)cc2)CC1 [Compound 104] | 1000 to 10000 nM
4 | CN1CCN(c2ccc(Nc3ncc4ccc(=O)n(Cc5ccccc5-n5cccn5)c4n3)cc2)CC1 [Compound 107] | < 1000 nM
5 | COc1ccc(F)cc1Cn1c(=O)ccc2cnc(Nc3ccc(N4CCN(C)CC4)cc3)nc21 [Compound 108] | < 1000 nM
6 | CN1CCCC(Nc2ccc(Nc3ncc4ccc(=O)n(Cc5ccccc5C(F)(F)F)c4n3)cc2)C1 (stereo not drawn) [Compound 115] | < 1000 nM

The next lines start with the values.

Row | IC50 | SMILES
7 | 1000 to 10000 nM | Cc1cccnc1Cn1c(=O)ccc2cnc(Nc3ccc(N4CCN(C)CC4)cc3)nc21 [Compound 106]
8 | < 1000 nM | CN1CCN(c2ccc(Nc3ncc4ccc(=O)n(Cc5c(O)cccc5Cl)c4n3)cc2)CC1 [Compound 109]
9 | < 1000 nM | Cc1ccccc1Cn1c(=O)ccc2cnc(Nc3ccc(N4CCN(C)CC4)cc3)nc21 [Compound 117]

biological target: PAK2 (Homo sapiens, UniProt Q13177); experiment: Z'Lyte fluorescence-based (FRET) PAK kinase assay, PAK2; assay type: biochemical; conditions: Table 1 of Example 29 (own compound numbering); 75 µM ATP
Sequence (Q13177 whole entry): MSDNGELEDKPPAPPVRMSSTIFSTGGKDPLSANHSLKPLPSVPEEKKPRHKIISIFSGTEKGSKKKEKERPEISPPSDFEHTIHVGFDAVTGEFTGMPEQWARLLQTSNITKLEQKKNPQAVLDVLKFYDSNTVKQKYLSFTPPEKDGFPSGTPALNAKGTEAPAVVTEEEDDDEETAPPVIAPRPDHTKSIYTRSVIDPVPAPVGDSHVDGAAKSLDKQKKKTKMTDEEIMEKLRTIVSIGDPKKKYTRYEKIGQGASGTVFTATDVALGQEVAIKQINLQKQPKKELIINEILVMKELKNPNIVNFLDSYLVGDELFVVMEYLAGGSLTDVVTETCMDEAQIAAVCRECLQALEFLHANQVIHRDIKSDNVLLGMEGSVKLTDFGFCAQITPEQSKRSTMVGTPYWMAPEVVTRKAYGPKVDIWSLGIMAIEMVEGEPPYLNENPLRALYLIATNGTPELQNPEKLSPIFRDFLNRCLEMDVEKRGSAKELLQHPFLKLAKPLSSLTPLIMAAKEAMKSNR
Method: as §1, §2, §3, §4, §5, §6
as §1, with “non-phosphorylated but” for “non-phosphorylated bat”, “peptide (Z'Lyte™” for “peptide (Z′Lyte™”, “assay platform” for “assay platform;”
as §2, with “mM MgCl2;” for “nM MgCl1;”
as §4, with “at Km” for “at Kin”, “[50 μMATP” for “[50 ┌M ATP”, “75 µM” for “75 ┌M”, “[…]” for “10 μl.”, “kinase reaction.” for “kinase reaction,”, “[…]” for “5 μl”
as §7

Row | SMILES | IC50
10 | CC(c1ccccc1)n1c(=O)ccc2cnc(Nc3ccc(N4CCN(C)CC4)cc3)nc21 (stereo not drawn) [Compound 102] | 1000 to 10000 nM
11 | CN1CCN(c2ccc(Nc3ncc4ccc(=O)n(CCc5ccccc5)c4n3)cc2)CC1 [Compound 103] | < 1000 nM
12 | CN1CCN(c2ccc(Nc3ncc4ccc(=O)n(CC(=O)c5ccccc5)c4n3)cc2)CC1 [Compound 104] | 1000 to 10000 nM
13 | CN1CCN(c2ccc(Nc3ncc4ccc(=O)n(Cc5ccccc5-n5cccn5)c4n3)cc2)CC1 [Compound 107] | 1000 to 10000 nM
14 | COc1ccc(F)cc1Cn1c(=O)ccc2cnc(Nc3ccc(N4CCN(C)CC4)cc3)nc21 [Compound 108] | 1000 to 10000 nM
15 | CN1CCCC(Nc2ccc(Nc3ncc4ccc(=O)n(Cc5ccccc5C(F)(F)F)c4n3)cc2)C1 (stereo not drawn) [Compound 115] | < 1000 nM

Next, values leading:

Row | IC50 | SMILES
16 | 1000 to 10000 nM | Cc1cccnc1Cn1c(=O)ccc2cnc(Nc3ccc(N4CCN(C)CC4)cc3)nc21 [Compound 106]
17 | < 1000 nM | CN1CCN(c2ccc(Nc3ncc4ccc(=O)n(Cc5c(O)cccc5Cl)c4n3)cc2)CC1 [Compound 109]
18 | < 1000 nM | Cc1ccccc1Cn1c(=O)ccc2cnc(Nc3ccc(N4CCN(C)CC4)cc3)nc21 [Compound 117]

biological target: PAK3 (Homo sapiens, UniProt O75914); experiment: Z'Lyte fluorescence-based (FRET) PAK kinase assay, PAK3; assay type: biochemical; conditions: Table 1 of Example 29 (own compound numbering); 100 μM ATP
Sequence (O75914 whole entry): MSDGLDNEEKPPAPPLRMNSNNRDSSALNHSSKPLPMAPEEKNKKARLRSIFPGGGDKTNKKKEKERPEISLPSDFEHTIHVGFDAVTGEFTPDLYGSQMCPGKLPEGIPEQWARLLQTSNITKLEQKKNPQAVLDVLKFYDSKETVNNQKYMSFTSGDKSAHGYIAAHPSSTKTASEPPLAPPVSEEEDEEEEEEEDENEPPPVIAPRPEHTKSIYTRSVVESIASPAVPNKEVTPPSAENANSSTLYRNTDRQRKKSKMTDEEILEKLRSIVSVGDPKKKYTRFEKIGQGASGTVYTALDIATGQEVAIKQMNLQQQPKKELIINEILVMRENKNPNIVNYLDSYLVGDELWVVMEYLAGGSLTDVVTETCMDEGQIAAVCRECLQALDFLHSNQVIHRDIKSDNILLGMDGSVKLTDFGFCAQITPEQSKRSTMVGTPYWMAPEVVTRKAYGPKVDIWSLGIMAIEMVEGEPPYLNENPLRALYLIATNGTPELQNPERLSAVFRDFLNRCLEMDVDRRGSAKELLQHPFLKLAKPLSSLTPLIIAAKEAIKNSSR
Method: as §1, §2, §3, §4, §5, §6
as §1, with “non-phosphorylated but” for “non-phosphorylated bat”, “peptide (Z'Lyte™” for “peptide (Z′Lyte™”, “assay platform” for “assay platform;”
as §2, with “mM MgCl2;” for “nM MgCl1;”
as §4, with “at Km” for “at Kin”, “[50 μMATP” for “[50 ┌M ATP”, “75 µM” for “75 ┌M”, “[…]” for “10 μl.”, “kinase reaction.” for “kinase reaction,”, “[…]” for “5 μl”
as §7

Row | SMILES | IC50
19 | CC(c1ccccc1)n1c(=O)ccc2cnc(Nc3ccc(N4CCN(C)CC4)cc3)nc21 (stereo not drawn) [Compound 102] | > 10000 nM
20 | CN1CCN(c2ccc(Nc3ncc4ccc(=O)n(CCc5ccccc5)c4n3)cc2)CC1 [Compound 103] | 1000 to 10000 nM
21 | CN1CCN(c2ccc(Nc3ncc4ccc(=O)n(CC(=O)c5ccccc5)c4n3)cc2)CC1 [Compound 104] | 1000 to 10000 nM
22 | CN1CCN(c2ccc(Nc3ncc4ccc(=O)n(Cc5ccccc5-n5cccn5)c4n3)cc2)CC1 [Compound 107] | 1000 to 10000 nM
23 | COc1ccc(F)cc1Cn1c(=O)ccc2cnc(Nc3ccc(N4CCN(C)CC4)cc3)nc21 [Compound 108] | 1000 to 10000 nM
24 | CN1CCCC(Nc2ccc(Nc3ncc4ccc(=O)n(Cc5ccccc5C(F)(F)F)c4n3)cc2)C1 (stereo not drawn) [Compound 115] | < 1000 nM

Other lines, results leading:

Row | IC50 | SMILES
25 | > 10000 nM | Cc1cccnc1Cn1c(=O)ccc2cnc(Nc3ccc(N4CCN(C)CC4)cc3)nc21 [Compound 106]
26 | 1000 to 10000 nM | CN1CCN(c2ccc(Nc3ncc4ccc(=O)n(Cc5c(O)cccc5Cl)c4n3)cc2)CC1 [Compound 109]
27 | < 1000 nM | Cc1ccccc1Cn1c(=O)ccc2cnc(Nc3ccc(N4CCN(C)CC4)cc3)nc21 [Compound 117]

biological target: PAK4 (Homo sapiens, UniProt O96013); experiment: Z'Lyte fluorescence-based (FRET) PAK kinase assay, PAK4; assay type: biochemical; conditions: Table 1 of Example 29 (own compound numbering); 5 μM ATP
Sequence (O96013 whole entry): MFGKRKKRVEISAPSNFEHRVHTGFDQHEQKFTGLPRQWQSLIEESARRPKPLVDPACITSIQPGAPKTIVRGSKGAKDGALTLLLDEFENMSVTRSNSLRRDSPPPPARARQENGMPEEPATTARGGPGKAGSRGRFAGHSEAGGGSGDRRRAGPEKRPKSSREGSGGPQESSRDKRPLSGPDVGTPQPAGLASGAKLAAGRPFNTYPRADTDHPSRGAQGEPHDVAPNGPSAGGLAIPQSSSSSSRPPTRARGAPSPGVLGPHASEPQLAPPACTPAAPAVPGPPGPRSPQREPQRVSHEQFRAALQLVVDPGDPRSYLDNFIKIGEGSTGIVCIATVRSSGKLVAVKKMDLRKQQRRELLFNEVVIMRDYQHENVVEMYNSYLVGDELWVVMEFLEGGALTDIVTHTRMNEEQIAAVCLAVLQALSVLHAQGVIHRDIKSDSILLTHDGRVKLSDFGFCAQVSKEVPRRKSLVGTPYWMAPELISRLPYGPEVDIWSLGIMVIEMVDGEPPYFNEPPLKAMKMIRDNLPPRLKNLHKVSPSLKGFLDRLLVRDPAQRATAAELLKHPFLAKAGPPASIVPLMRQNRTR
Method: as §1, §2, §3, §4, §5, §6
as §1, with “non-phosphorylated but” for “non-phosphorylated bat”, “peptide (Z'Lyte™” for “peptide (Z′Lyte™”, “assay platform” for “assay platform;”
as §2, with “mM MgCl2;” for “nM MgCl1;”
as §4, with “at Km” for “at Kin”, “[50 μMATP” for “[50 ┌M ATP”, “75 µM” for “75 ┌M”, “[…]” for “10 μl.”, “kinase reaction.” for “kinase reaction,”, “[…]” for “5 μl”
as §7

Row | SMILES | IC50
28 | CC(c1ccccc1)n1c(=O)ccc2cnc(Nc3ccc(N4CCN(C)CC4)cc3)nc21 (stereo not drawn) [Compound 102] | 1000 to 10000 nM
29 | CN1CCN(c2ccc(Nc3ncc4ccc(=O)n(CCc5ccccc5)c4n3)cc2)CC1 [Compound 103] | < 1000 nM
30 | CN1CCN(c2ccc(Nc3ncc4ccc(=O)n(CC(=O)c5ccccc5)c4n3)cc2)CC1 [Compound 104] | 1000 to 10000 nM
31 | CN1CCN(c2ccc(Nc3ncc4ccc(=O)n(Cc5ccccc5-n5cccn5)c4n3)cc2)CC1 [Compound 107] | 1000 to 10000 nM
32 | COc1ccc(F)cc1Cn1c(=O)ccc2cnc(Nc3ccc(N4CCN(C)CC4)cc3)nc21 [Compound 108] | 1000 to 10000 nM
33 | CN1CCCC(Nc2ccc(Nc3ncc4ccc(=O)n(Cc5ccccc5C(F)(F)F)c4n3)cc2)C1 (stereo not drawn) [Compound 115] | < 1000 nM

Further lines, results first:

Row | IC50 | SMILES
34 | 1000 to 10000 nM | Cc1cccnc1Cn1c(=O)ccc2cnc(Nc3ccc(N4CCN(C)CC4)cc3)nc21 [Compound 106]
35 | < 1000 nM | CN1CCN(c2ccc(Nc3ncc4ccc(=O)n(Cc5c(O)cccc5Cl)c4n3)cc2)CC1 [Compound 109]
36 | < 1000 nM | Cc1ccccc1Cn1c(=O)ccc2cnc(Nc3ccc(N4CCN(C)CC4)cc3)nc21 [Compound 117]
